Reference: BindingDB's records for doi:10.1016/j.bmcl.2007.01.081 (Roche Research Center, 2007)

What was measured:
SJSA-1 = assay: Antiproliferative activity against human SJSA1 cells
MDA-MB-435 = assay: Antiproliferative activity against human MDA435 cells
SW480 = assay: Antiproliferative activity against human SW480 cells
HCT-116 = assay: Antiproliferative activity against human HCT116 cells
RKO = assay: Antiproliferative activity against human RKO cells

Row | Compound | IC50 (SJSA-1) | IC50 (MDA-MB-435) | IC50 (SW480) | IC50 (HCT-116) | IC50 (RKO)
1 | O=C1N=C(N[C@@H]2C[C@H]2c2ccccc2)SC1=Cc1ccc2ncccc2c1 [(Z)-2-((1R,2S)-2-phenylcyclopropylamino)-5-(quinolin-6-ylmethylene)thiazol-4(5H)-one] | 1850 nM |  |  |  | 
2 | O=C1N=C(NCc2cccs2)S/C1=C/c1ccc2ncccc2c1 | 4550 nM |  |  |  | 
3 | O=C1N=C(N[C@@H](CO)Cc2ccccc2)SC1=Cc1ccc2ncccc2c1 [(R,Z)-2-(1-hydroxy-3-phenylpropan-2-ylamino)-5-(quinolin-6-ylmethylene)thiazol-4(5H)-one] | 3240 nM | 2030 nM | 3070 nM | 1580 nM | 1390 nM
